Assay results: patent publication US11124518B2, “L,2-dihydro-3H-pyrazolo[3,4-D]pyrimidin-3-one analogs” (Recurium IP Holdings, LLC, priority 2017, dated 2021)

Tests used:
[1] = target: Wee1 kinase (Homo sapiens (Human), UniProt P30291); test: Wee1 Binding Assay (FRET); settings: Wee1 kinase 2 nM, tracer 178 50 nM, 60 min at RT, read-out: Wee1 Enzymatic IC50
Experimental: Wee 1 kinase was determined by using Flurorescence Resonance Energy Transfer (FRET) assay. […] The plate was shaken for 30 seconds, incubated for 60 min at RT, and recorded on fluorescence plate reader.

[2] = tested on: H23 cells; test: H23 Cellular Proliferation Assay (CellTiter-Glo); assay type: cell-based; settings: Homo sapiens, NCI-H23, 96 h, 4 days
Experimental: Cells were treated with compounds diluted in DMSO and a 9 point 5-fold serial dilutions. Plates were placed in 37° C., 5% CO2 to incubate for 4 days. Before they were developed by adding 100 μL of CellTiter-Glo reagent (Promega) to the assay plate, plates were shaken briefly for 2 mins and allowed to incubate at RT for 10 mins. The plates are read with a M5e plate reader according to CellTiter-Glo protocol. The GraphPad Prism software was used to get IC50 values. The bottom of the plates was pasted with white back seal and luminescence was recorded with Enspire or Envision.

[3] = tested on: SW480 cells; test: SW480 Cellular Proliferation Assay (CellTiter-Glo); assay type: cell-based; settings: Homo sapiens, 96 h, 4 days
Experimental: Cells were treated with compounds diluted in DMSO and a 10 point 3-fold serial dilutions. Plates were placed in 37° C., 5% CO2 for to incubate for 4 days. Before they were developed by adding 100 μL of CellTiter-Glo reagent (Promega) to the assay plate, plates were shaken briefly for 2 mins and allowed to incubate at RT for 60 mins. The bottom of the plates was pasted with white back seal and luminescence was recorded with Enspire or Envision.

Wee1 kinase, sequence (P30291 whole entry): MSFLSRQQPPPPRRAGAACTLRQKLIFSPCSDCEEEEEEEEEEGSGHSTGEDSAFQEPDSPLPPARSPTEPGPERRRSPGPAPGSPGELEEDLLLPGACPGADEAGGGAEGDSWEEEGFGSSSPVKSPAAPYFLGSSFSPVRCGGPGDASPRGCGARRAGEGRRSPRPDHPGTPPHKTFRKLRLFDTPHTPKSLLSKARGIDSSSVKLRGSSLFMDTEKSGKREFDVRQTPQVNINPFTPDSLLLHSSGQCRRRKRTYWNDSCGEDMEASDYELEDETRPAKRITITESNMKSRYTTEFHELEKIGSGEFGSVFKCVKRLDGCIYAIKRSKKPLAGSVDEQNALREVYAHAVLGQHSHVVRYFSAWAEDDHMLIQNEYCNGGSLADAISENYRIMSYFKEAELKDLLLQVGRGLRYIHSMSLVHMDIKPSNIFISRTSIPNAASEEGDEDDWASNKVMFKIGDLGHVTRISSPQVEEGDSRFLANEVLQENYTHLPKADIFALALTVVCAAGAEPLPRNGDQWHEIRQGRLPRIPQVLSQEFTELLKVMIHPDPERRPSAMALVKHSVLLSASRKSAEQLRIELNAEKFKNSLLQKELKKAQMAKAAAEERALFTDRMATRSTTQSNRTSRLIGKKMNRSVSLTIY

IC50 [1] [µM]	IC50 [3] [µM]	SMILES	IC50 [2] [µM]
0.01 to 0.1	–	C=CCn1c(=O)c2cnc(Nc3ccc4c(n3)CCN(C)C4)nc2n1-c1cccc(C(C)(C)O)n1 [Example 26, 2-Allyl-1-(6-(2-hydroxypropan-2-yl)pyridin-2-yl)-6-((6-methyl-5,6,7,8-tetrahydro-1,6-naphthyridin-2-yl)amino)-1,2-dihydro-3H-pyrazolo[3,4-d]pyrimidin-3-one]	–
< 0.01	–	C=CCn1c(=O)c2cnc(Nc3ccc4c(c3)CNCC4(F)F)nc2n1-c1cccc(C(C)(C)O)n1 [Example 28, 2-Allyl-6-((4,4-difluoro-1,2,3,4-tetrahydroisoquinolin-7-yl)amino)-1-(6-(2-hydroxypropan-2-yl)pyridin-2-yl)-1,2-dihydro-3H-pyrazolo[3,4-d]pyrimidin-3-one hydrogen chloride]	0.1 to 1
< 0.01	–	C=CCn1c(=O)c2cnc(Nc3ccc4c(c3)CN(C(C)=O)CC43CC3)nc2n1-c1cccc(C(C)(C)O)n1 [Example 4, 6-((2′-Acetyl-2′,3′-dihydro-1′H-spiro[cyclopropane-1,4′-isoquinolin]-7′-yl)amino)-2-allyl-1-(6-(2-hydroxypropan-2-yl)pyridin-2-yl)-1,2-dihydro-3H-pyrazolo[3,4-d]pyrimidin-3-one]	–
< 0.01	–	C=CCn1c(=O)c2cnc(Nc3cnc4c(c3)CN(C)CC4)nc2n1-c1cccc(C(C)(C)O)n1 [Example 25, 2-Allyl-1-(6-(2-hydroxypropan-2-yl)pyridin-2-yl)-6-((6-methyl-5,6,7,8-tetrahydro-1,6-naphthyridin-3-yl)amino)-1,2-dihydro-3H-pyrazolo[3,4-d]pyrimidin-3-one]	–
< 0.01	–	C=CCn1c(=O)c2cnc(Nc3ccc4c(c3)[C@@H](C)NCC4(C)C)nc2n1-c1cccc(C(C)(C)O)n1 (single isomer, unassigned) [Example 29]	0.1 to 1
< 0.01	–	C=CCn1c(=O)c2cnc(Nc3ccc4c(c3)CN(C(C)C)CC43CC3)nc2n1-c1cccc(C(C)(C)O)n1 [Example 3, 2-Allyl-1-(6-(2-hydroxypropan-2-yl)pyridin-2-yl)-6-((2′-isopropyl-2′,3′-dihydro-1′H-spiro[cyclopropane-1,4′-isoquinolin]-7′-yl)amino)-1,2-dihydro-3H-pyrazolo[3,4-d]pyrimidin-3-one]	–
< 0.01	0.1 to 1	C=CCn1c(=O)c2cnc(Nc3ccc4c(c3)CN(S(C)(=O)=O)CC4)nc2n1-c1cccc(C(C)(C)O)n1 [Example 9, 2-Allyl-1-(6-(2-hydroxypropan-2-yl)pyridin-2-yl)-6-((2-(methylsulfonyl)-1,2,3,4-tetrahydroisoquinolin-7-yl)amino)-1,2-dihydro-3H-pyrazolo[3,4-d]pyrimidin-3-one]	–
0.01 to 0.1	–	C=CCn1c(=O)c2cnc(Nc3ccc4c(n3)CN(C)CC4)nc2n1-c1cccc(C(C)(C)O)n1 [Example 24, 2-Allyl-1-(6-(2-hydroxypropan-2-yl)pyridin-2-yl)-6-((7-methyl-5,6,7,8-tetrahydro-1,7-naphthyridin-2-yl)amino)-1,2-dihydro-3H-pyrazolo[3,4-d]pyrimidin-3-one]	–
< 0.01	–	C=CCn1c(=O)c2cnc(Nc3ccc4c(c3)[C@H](C)NCC4(C)C)nc2n1-c1cccc(C(C)(C)O)n1 (single isomer, unassigned) [Example 30]	< 0.1
< 0.01	–	C=CCn1c(=O)c2cnc(Nc3ccc4c(c3)CCN(C3COC3)C4)nc2n1-c1cccc(C(C)(C)O)n1 [Example 18, 2-Allyl-1-(6-(2-hydroxypropan-2-yl)pyridin-2-yl)-6-((2-(oxetan-3-yl)-1,2,3,4-tetrahydroisoquinolin-6-yl)amino)-1,2-dihydro-3H-pyrazolo[3,4-d]pyrimidin-3-one]	0.1 to 1
< 0.01	–	C=CCn1c(=O)c2cnc(Nc3ccc4c(c3)CNC4)nc2n1-c1cccc(C(C)(C)O)n1 [Example 21, 2-Allyl-1-(6-(2-hydroxypropan-2-yl)pyridin-2-yl)-6-(isoindolin-5-ylamino)-1,2-dihydro-3H-pyrazolo[3,4-d]pyrimidin-3-one hydrogen chloride]	0.1 to 1
< 0.01	–	C=CCn1c(=O)c2cnc(Nc3ccc4c(c3)CN(CC)CC4)nc2n1-c1cccc(C(C)(C)O)n1 [Example 7, 2-Allyl-6-((2-ethyl-1,2,3,4-tetrahydroisoquinolin-7-yl)amino)-1-(6-(2-hydroxypropan-2-yl)pyridin-2-yl)-1,2-dihydro-3H-pyrazolo[3,4-d]pyrimidin-3-one]	0.1 to 1
–	0.1 to 1	C=CCn1c(=O)c2cnc(Nc3ccc(N4CCN(C)CC4)cc3)nc2n1-c1cccc(C(C)(C)O)n1 [AZD1775, 2-allyl-1-(6-(2-hydroxypropan-2-yl)pyridin-2-yl)-6-(4-(4-methylpiperazin-1-yl)phenylamino)-1,2-dihydropyrazolo[3,4-d]pyrimidin-3-one, reference compound]	0.1 to 1
–	–	C=CCn1c(=O)c2cnc(Nc3ccc4c(c3)CN(C3COC3)CC4)nc2n1-c1cccc(C(C)(C)O)n1 [Example 14, 2-Allyl-1-(6-(2-hydroxypropan-2-yl)pyridin-2-yl)-6-((2-(oxetan-3-yl)-1,2,3,4-tetrahydroisoquinolin-7-yl)amino)-1,2-dihydro-3H-pyrazolo[3,4-d]pyrimidin-3-one]	0.1 to 1
< 0.01	–	C=CCn1c(=O)c2cnc(Nc3ccc4c(c3)CN(C(C)C)CC4)nc2n1-c1cccc(C(C)(C)O)n1 [Example 10, 2-Allyl-1-(6-(2-hydroxypropan-2-yl)pyridin-2-yl)-6-((2-isopropyl-1,2,3,4-tetrahydroisoquinolin-7-yl)amino)-1,2-dihydro-3H-pyrazolo[3,4-d]pyrimidin-3-one]	–
–	–	C=CCn1c(=O)c2cnc(Nc3ccc4c(c3)CCN(CCO)C4)nc2n1-c1cccc(C(C)(C)O)n1 [Example 17, 2-Allyl-6-((2-(2-hydroxyethyl)-1,2,3,4-tetrahydroisoquinolin-6-yl)amino)-1-(6-(2-hydroxypropan-2-yl)pyridin-2-yl)-1,2-dihydro-3H-pyrazolo[3,4-d]pyrimidin-3-one hydrogen chloride]	0.1 to 1
< 0.01	–	C=CCn1c(=O)c2cnc(Nc3ccc4c(c3)CN(C)C4)nc2n1-c1cccc(C(C)(C)O)n1 [Example 23, 2-Allyl-1-(6-(2-hydroxypropan-2-yl)pyridin-2-yl)-6-((2-methylisoindolin-5-yl)amino)-1,2-dihydro-3H-pyrazolo[3,4-d]pyrimidin-3-one]	0.1 to 1
–	–	C=CCn1c(=O)c2cnc(Nc3ccc4c(c3)CN(C)CC4(F)F)nc2n1-c1cccc(C(C)(C)O)n1 [Example 27, 2-Allyl-6-((4,4-difluoro-2-methyl-1,2,3,4-tetrahydroisoquinolin-7-yl)amino)-1-(6-(2-hydroxypropan-2-yl)pyridin-2-yl)-1,2-dihydro-3H-pyrazolo[3,4-d]pyrimidin-3-one]	> 1

SMILES	IC50 [1] [µM]	IC50 [3] [µM]	IC50 [2] [µM]
C=CCn1c(=O)c2cnc(Nc3ccc4c(c3)CN(C)CC43CC3)nc2n1-c1cccc(C(C)(C)O)n1 [Example 1, 2-Allyl-1-(6-(2-hydroxypropan-2-yl)pyridin-2-yl)-6-((2′-methyl-2′,3′-dihydro-1′H-spiro-[cyclopropane-1,4′-isoquinolin]-7′-yl)amino)-1,2-dihydro-3H-pyrazolo[3,4-d]pyrimidin-3-one]	–	0.1 to 1	< 0.1
